Key:
HN5 xenograft = test: HN5 head and neck xenograft with fractionated irradiation; type: in vivo, CD-1 nude mice; conditions: 60 mg/kg daily oral and/or 4 Gy irradiation for 5 days
Description: HN5 head and neck cells were injected intramuscularly into CD-1 nude mice. Upon tumors reaching 8.5 mm in diameter, animals were enrolled in the study and received either vehicle or the compound of Example 7 (days 0-5) with or without a 4 Gy dose 6 hours after the compound of Example 7 on days 1-5 of the study (FIG. 12). Tumor size was measured every other day to determine the rate of growth (FIG. 13).

293T-HRE-GFP-luc cells = test: Cell-based reporter assay for IC50 determinations (HRE-luciferase, hypoxia); conditions: 6 hrs hypoxia (1% O2), luminescence
How it was run: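 IC50s come from four-parameter logistic fits of luminescence. Compounds in 1:3 DMSO series were added to 293T-HRE-GFP-luc cells, 30 min normoxia preceding 6 hrs at 1% O2, 37° C; HRE-luciferase signal was then measured with Steadylite Plus reagent.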

OCI-AML3 cell line = test: Acute myeloid leukemia cell line viability; type: cell-based, human; conditions: OCI-AML3, various concentrations, 7 days
Description: (§1) The OCI-AML3 cell line was treated with various concentrations of the compound of Example 7 for 7 days and the percent of viable cells normalized to control cells treated with DMSO (FIG. 8). CD45+ primary AML cells from an AML patient or CD45+ normal bone marrow cells from a healthy volunteer were treated with the compound of Example 7 for 4 days and the number of viable cells and percentage of apoptotic (annexin V) were determined (FIGS. 9a and 9b). […] OCI-AML3 cells constitutively expressing luciferase were tail vein injected in NSG nude mice. 17 days after cell injection, luciferin was injected into animals and luciferase signal was measured using an IVIS imaging system to determine tumor burden and for randomization of subjects into study groups. On day 18, animals began receiving daily oral doses of vehicle or 60 mpk of the compound of Example 7 were started and continued throughout the study. On day 28, imaging was performed again to determine tumor burden (FIG. 10).

[1] = system: CD45+ primary AML cells from an AML patient; test: Primary AML cells, viable cells and annexin V; type: cell-based, human; conditions: 4 days
Description: as §1

[2] = system: CD45+ normal bone marrow cells from a healthy volunteer; test: Normal bone marrow cells, viable cells and annexin V; type: cell-based, human; conditions: 4 days
Description: as §1

Gli56 cells = test: Glioblastoma cellular assay; type: cell-based; conditions: Gli56, various concentrations
Description: (§2) NB-1, Gli56, and D423 cell lines are deleted for ENO-1 (GLI56 and D423) or PGD, which renders them with reduced glycolytic capacity (Muller, F. et al., Nature, 2012, 488, 337-42).

NB-1 xenografts = test: NB-1 xenograft model; type: in vivo, CD-1 nude mice; conditions: 40 mg/kg daily oral
Description: To establish activity and provide in vivo proof of concept, NB-1 cells were implanted into CD-1 nude mice and treated with vehicle or 40 mpk of the compound of Example 7 po daily hen tumors reached 400-500 mm^3. Tumor size was measure 3×/week using caliper measurements (FIG. 4).

D423 cells = test: Cellular assay in ENO-1 deleted D423 cells; type: cell-based; conditions: D423, various concentrations
Description: as §2

H460 xenografts = test: H460 non-small cell lung cancer xenograft; type: in vivo, CD-1 nude mice
Description: Non-Small Cell Lung Cancer: H460 cells were implanted subcutaneously in CD-1 nude mice and treated with the compound of Example 7 (40 mpk qdx 14) delivered by oral gavage for 14 days. Animals were randomized into study groups and the study initiated when the average tumor volume was 400 mm^3. During treatment, tumor volume was measured three times per week to determine tumor growth over the course of the study (FIG. 5). Nine tumor bearing mice were included in each group. On day 15, 3 hours prior to take down, hypoxyprobe (Hypoxyprobe, Inc. cat #HP3) was injected into mice. Tumor sections were stained (dark areas) for the level of hypoxia utilizing an anti-hypoxyprobe antibody and standard IHC methods (FIG. 6). The same tumors were stained for the expression of HIF regulated gene carbonic anhydrase IX (CA9) using standard IHC methods (FIG. 7).

NB-1 cells = test: Neuroblastoma cellular assay; type: cell-based; conditions: NB-1, various concentrations
Description: as §2

[3] = system: OCI-AML3 cells constitutively expressing luciferase; test: OCI-AML3 leukemia model in NSG mice (IVIS imaging, survival); type: in vivo, NSG nude mice
Description: as §1

TMD8 cells = test: Diffuse large B-cell lymphoma (DLBCL) assay, viable cells by Guava ViaCount; type: cell-based; conditions: varying concentrations, 7 days
Description: Diffuse Large B-Cell Lymphoma (DLBCL) Assay
Equal number of TMD8 cells were plated and treated with varying concentrations of the compound of Example 7 for 7 days. Percent of viable cells was determined using Guava ViaCount reagents (EMD Millipore cat #4000-0040) that contains proprietary dyes that enable the determination of the number of live and dead cells in a sample (FIG. 1).

SMILES: CN1CCN(c2cc(Cn3cc(-c4nc(-c5ccc(OC(F)(F)F)cc5)no4)ccc3=O)ccn2)CC1 [Example 7, 1-methyl-4-(4-((2-oxo-5-(3-(4-(trifluoromethoxy)phenyl)-1,2,4-oxadiazol-5-yl)pyridin-1(2H)-yl)methyl)pyridin-1-ium-2-yl)piperazin-1-ium bis-trifluoroacetate]
- tumor diameter, combination with irradiation (HN5 xenograft): enhance fractionated irradidation
- IC50 (293T-HRE-GFP-luc cells): < 100 nM
- percent of viable cells normalized to DMSO control (OCI-AML3 cell line): reduced number of viable cells
- number of viable cells [1]: significant decrease
- percentage of apoptotic (annexin V) cells [1]: significant increase
- response (viable cells, annexin V) [2]: minimal response
- cell death (Gli56 cells): cell death readily apparent
- cell number (Gli56 cells): significantly reduced
- tumor growth (NB-1 xenografts): reduces the tumor growth
- cell number (D423 cells): significantly reduced
- tumor growth (H460 xenografts; 40 mpk qdx14 oral gavage): inhibited the growth of the H460 xenografts
- carbonic anhydrase IX (CA9) protein expression in tumor (IHC) (H460 xenografts; 40 mpk qdx14 oral, day 15): elimination of hypoxia and CA9 protein expression
- level of hypoxia in tumor (hypoxyprobe IHC) (H460 xenografts; 40 mpk qdx14 oral, day 15): elimination of hypoxia
- cell death (NB-1 cells): cell death readily apparent
- cell number (NB-1 cells): significantly reduced
- disease burden (IVIS imaging) ([3]; 60 mg/kg daily oral, NSG mice): reduces disease burden
- survival ([3]; 60 mpk daily oral, relative to vehicle): significantly increased their survival
- Percent of viable cells (TMD8 cells): respond robustly

Reference: US20140073634A1 (Institute For Applied Cancer Science/The University of …, priority 2012, published 2014)
